Values quoted from earlier work, collected in patent EP0970199B1, “FLUORESCENT PROTEIN SENSORS FOR DETECTION OF ANALYTES” (The Regents of the University of California, priority 1997, dated 1998).

Settings: fluorescein in 0.1 N NaOH; 9-aminoacridine in water

SMILES: Nc1c2ccccc2nc2ccccc12 [9-aminoacridine]
- quantum yield of standard: 0.98
